# Data from article PMC5407577, “Functional and genetic evidence that nucleoside transport is highly conserved in Leishmania species: Implications for pyrimidine-based chemotherapy” (International Journal for Parasitology: Drugs and Drug …, 2017).
# How the values were obtained:
# LmexUU1 = type: cell-based, Leishmania mexicana
# Experimental: (§1) Using the standard uptake technique as described for T. brucei and Leishmania species ([Wallace et al., 2002], [Al-Salabi and De Koning, 2005], [Gudin et al., 2006]), the dose- or time-dependent uptake of radiolabeled permeants was investigated.
# (§2) Briefly, cells in the mid-to-late logarithmic stage of growth were harvested by centrifugation for 10 min at 1500×g. The cells were washed twice with transport assay buffer (AB: 33 mM HEPES, 98 mM NaCl, 4.6 mM KCl, 0.55 mM CaCl2, 0.07 mM MgSO4, 5.8 mM NaH2PO4, 0.3 mM MgCl2, 23 mM NaHCO3, 14 mM glucose, pH 7.3), resuspended at a density of 10^8 cells ml^−1 in AB, and left for 20–30 min at room temperature to recover from centrifugation stress. One hundred microliters of cell suspension was incubated at ambient temperature for a predetermined time with 100 μl radiolabeled test compound, in the presence or absence of unlabeled substrate or other competitive inhibitors. The incubation was terminated by the addition of ice-cold stop solution (AB containing saturating levels, usually 10 mM, of unlabeled permeant) and centrifugation through oil for 1 min at 13,000 × g. […] Radioactivity was determined by liquid scintillation counting in a Beckman LS6000 TA scintillation counter. Saturation data, inhibition data, and time courses were plotted to equations for linear or non-linear regression (hyperbolic or sigmoid curves), as appropriate. All experiments were performed in triplicate and on at least three independent occasions.
# LmajNT1 [1] = experiment: [3H]-uridine uptake by L. major promastigotes, low-affinity component; type: cell-based, Leishmania major; conditions: inhibition of 0.25 μM [3H]-uridine uptake
# Experimental: as §1, §2
# LmajNT1 [2] = experiment: [3H]-thymidine uptake by L. major promastigotes; type: cell-based, Leishmania major; conditions: inhibition of 0.25 μM [3H]-thymidine uptake (total LmajNT1.1 + LmajNT1.2), 5 min
# Experimental: as §1, §2
# Subsequent experiments were performed with a 5 min incubation time.
# LmajUUT1 = experiment: [3H]-uridine uptake by L. major promastigotes, high-affinity uracil-sensitive component; type: cell-based, Leishmania major; conditions: inhibition of 0.25 μM [3H]-uridine uptake
# Experimental: as §1, §2
# [3] = tested on: L. major promastigotes WT; experiment: Alamar blue drug sensitivity assay, L. major WT; type: cell-based, Leishmania major
# Experimental: (§3) Sensitivity assays of Leishmania strains to various drugs using the viability dye resazurin (Alamar Blue) (Sigma-Aldrich) were performed using a protocol adapted from [Räz et al. (1997)], as described ([Al-Salabi et al., 2003], [Gould et al., 2008]). Pentamidine and diminazene were used as non-nucleoside controls and were obtained from Sigma-Aldrich, as were many purines, pyrimidines, and analogs, with the exceptions of 2-thiouridine and 4-thiouridine (TriLink BioTechnologies, San Diego, CA); 5′-deoxyuridine, and 2′-3′-dideoxyuridine (Carbosynth, Compton, UK); 5-fluoro-2′-deoxyuridine (Fluka); and 2-thiouracil (ICN Biomedicals, Cambridge, UK). A preliminary promastigote culture was diluted to a density of 2 × 10^6 cells/ml, of which 100 μl was added to wells of 96-well plates pre-loaded with 100 μl of doubling dilutions of test compounds, resulting in a final density of 1 × 10^6 cells/ml; the dilutions were over 2 rows of the plate (23 concentrations), with the last well containing only medium and serving as the no-drug control. The plates were incubated at 25 °C for 72 h before adding the Alamar Blue dye (20 μl of 12.5 mg resazurin sodium salt (Sigma) in 100 ml phosphate buffered saline (PBS; pH 7.4)). Since Leishmania parasites metabolize the Alamar Blue dye slower than trypanosomes ([Gould et al., 2008]), the cells were incubated with the dye for a further period of 48 h before measuring the fluorescence, using a FLUOstar Optima fluorimeter (BMG Labtech) at wavelengths of 544 nm for excitation and 620 nm for emission. […] Each experiment was performed independently at least 4 times; statistical significance was determined using Student's unpaired t-test.
# L. major promastigotes = experiment: metabolomic analysis of treated L. major promastigotes; type: cell-based, Leishmania major; conditions: 100 μM, 8 h
# Experimental: (§4) Metabolomics analysis of the Leishmania promastigotes was undertaken in triplicate, exactly as described ([Ali et al., 2013a]). Briefly, cells were grown to log phase stage, resuspended at 2 × 10^6 cells/ml in 50 ml HOMEM/FBS and incubated 8 h with 100 μM of test compound (standard conditions) before transfer to a 50-ml centrifuge tube for instantaneous cooling (dry ice/ethanol bath, 4 °C) and centrifugation (2500 rpm, 10 min, 4 °C). The pellet was lysed with 200 μl of chloroform/methanol/water (1:3:1 v/v/v) containing mass spectrometry standards, and vigorous mixing (1 h, 4 °C); cell debris was removed by centrifugation and the metabolite extracts were stored in HPLC vials at −80 °C. Control samples were prepared in parallel and included untreated cells, unused growth medium, test compound solution and extraction solvent blanks. The analysis used a hydrophilic interaction liquid chromatography (HILIC-LC) fitted with a zwitterionic ZIC-pHILIC column (Merck Sequant), coupled to high resolution mass spectrometry (MS) using a Thermo Q-Exactive, and metabolomic data outputs were analyzed using the IDEOM application (http://mzmatch.sourceforge.net/ideom.php) with default parameters ([Creek et al., 2012]) exactly as described ([Ali et al., 2013a]). The lower limit of detection was set to 500 intensity units for all reported metabolites, in order to prevent spurious identification of low level signals.
# (§5) The mechanism of action of the fluorinated pyrimidines was investigated using a metabolomics approach, where promastigotes of L. mexicana and L. major were incubated for 8 h with 100 μM of either 5-FU, 5F-2′dUrd or 5F-Urd prior to metabolite extraction and mass spectrometric analysis as described ([Ali et al., 2013a], [Alkhaldi et al., 2015]). These conditions were chosen to allow for significant metabolite accumulation while not affecting cell viability or growth rate, which could broadly affect metabolite levels.
# [4] = tested on: L. mexicana promastigotes WT; experiment: Alamar blue drug sensitivity assay, L. mexicana WT; type: cell-based, Leishmania mexicana; conditions: for activity against L. mexicana promastigotes: at concentrations up to 5 mM
# Experimental: as §3
# Lmex5FURes = experiment: microbe, parasite or virus in culture; type: cell-based, Leishmania mexicana
# Experimental: as §3
# Lmex5F2′dURes = experiment: microbe, parasite or virus in culture; type: cell-based, Leishmania mexicana
# Experimental: as §3
# [5] = tested on: L. mexicana promastigotes; experiment: metabolomic analysis of treated L. mexicana promastigotes; type: cell-based, Leishmania mexicana; conditions: 100 μM, 8 h
# Experimental: as §4, §5
# Lmaj5FURes = experiment: microbe, parasite or virus in culture; type: cell-based, Leishmania major
# Experimental: as §3
# Lmaj5F2′dURes = experiment: microbe, parasite or virus in culture; type: cell-based, Leishmania major
# Experimental: as §3
# [6] = n = 3, SEM, untreated: not detected (<500)
structure (smiles),measurement,setting,value
O=c1ccn([C@H]2C[C@H](O)[C@@H](CO)O2)c(=O)[nH]1 [2′-deoxyuridine],Ki,"LmexUU1; inhibition of [3H]-uracil uptake, 4 min",9.3 ± 2.6 µM
same,maximal inhibition of [3H]-uracil transport,LmexUU1; n = 3,approximately 85%
same,Ki,LmajNT1 [1],24.9 ± 8.6 µM
same,Ki,LmajNT1 [2],112 ± 17 µM
same,Ki,LmajUUT1,24.9 ± 8.6 µM
"O=c1[nH]c(=O)n([C@@H]2O[C@H](CO)[C@@H](O)[C@H]2O)cc1F [5F-Urd, 5-Fluorouridine]",concentrations that killed promastigotes,[3],below 20 μM
same,EC50,"[3]; Leishmania major, WT promastigotes, 72 h + 48 h with dye, n ≥ 4, read-out: EC50",18 ± 1.6 µM
same,dCMP peak intensity,L. major promastigotes; [6],6744 ± 3500 arbitrary units
same,dUrd peak intensity,L. major promastigotes; untreated: 712 ± 105,8145 ± 1684^∗ arbitrary units
same,dCTP peak intensity,L. major promastigotes; untreated: 995 ± 109,5477 ± 1350^∗ arbitrary units
same,dAdo peak intensity,L. major promastigotes; untreated: 2992 ± 173,11818 ± 839^∗∗ arbitrary units
same,dAMP peak intensity,L. major promastigotes; untreated: 6192 ± 910,18001 ± 2307^∗ arbitrary units
same,dADP peak intensity,L. major promastigotes; untreated: not detected,6482 ± 3260 arbitrary units
same,dCDP peak intensity,L. major promastigotes; untreated: not detected,6904 ± 384^∗∗ arbitrary units
same,Ki,LmajNT1 [2],23.4 ± 1.3 µM
same,EC50,"[4]; Leishmania mexicana, 72 h, WT promastigotes, 72 h + 48 h with dye, n ≥ 4, read-out: EC50",> 5000 µM
same,activity against L. mexicana promastigotes,[4],insensitive
same,activity against L. mexicana promastigotes,[4]; listed as 5-fluorouridine,no activity
same,EC50,Lmex5FURes; Leishmania mexicana,> 5000 µM
same,RF (Resistance Factor = IC50 (resistant clone)/IC50 (WT)),Lmex5FURes; Lmex5FURes vs L. mexicana WT,1
same,EC50,Lmex5F2′dURes; Leishmania mexicana,> 5000 µM
same,RF (Resistance Factor = IC50 (resistant clone)/IC50 (WT)),Lmex5F2′dURes; Lmex5F2′dURes vs L. mexicana WT,1
same,dCMP peak intensity,[5]; [6],12757 ± 1038^∗∗ arbitrary units
same,dUrd peak intensity,[5]; untreated: 304 ± 155,6439 ± 456^∗ arbitrary units
same,dADP peak intensity,[5]; untreated: 1458,9404 ± 1389^∗ arbitrary units
same,dAdo peak intensity,[5]; untreated: 2585 ± 811,8045 ± 4537 arbitrary units
same,dAMP peak intensity,[5]; untreated: 10660 ± 2897,21978 ± 1784^∗∗ arbitrary units
same,dCDP peak intensity,[5]; untreated: not detected,10404 ± 1470^∗ arbitrary units
same,dCTP peak intensity,[5]; untreated: not detected,2338 ± 428^∗ arbitrary units
same,EC50,Lmaj5FURes; Leishmania major,110 ± 17 µM
same,RF (Resistance Factor = IC50 (resistant clone)/IC50 (WT)),Lmaj5FURes; Lmaj5FURes vs L. major WT,6.1
same,EC50,Lmaj5F2′dURes; Leishmania major,1230 ± 340 µM
same,RF (Resistance Factor = IC50 (resistant clone)/IC50 (WT)),Lmaj5F2′dURes; Lmaj5F2′dURes vs L. major WT,68
